Test results reported in patent US8263401B2, “Adenylyl cyclase antibodies, compositions and uses thereof” (University of Medicine and Dentistry of New Jersey, priority 2005, dated 2012).

How the values were obtained:
[1] = tested on: conscious AC5KO and WT mice; experiment: HR and arterial pressure in conscious mice (ECG, micromanometer catheter); type: in vivo, mouse; details: for decrease in HR: Ach 0.01 μg/g i.v.; for increase in HR: atropine 1 μg/g i.v.
Description: In AC5KO and WT mice, four ECG wires (New England Electric Wire Corporation, Lisbon, N.H., USA) were placed subcutaneously, a silicone elastomer tubing (Cardiovascular Instrument Corp., Wakefield, Mass., USA) was inserted into the right external jugular vein and a 1.4 F micromanometer catheter (Millar Instruments, Inc., Houston, Tex., USA) was inserted into the lower abdominal aorta via the femoral artery as described previously with some modifications (Uechi, M., Asai, K., Osaka, M., Smith, A., Sato, N., Wagner, T. E., Ishikawa, Y., Hayakawa, H., Vatner, D. E., Shannon, R. P., et al. (1998), Circ. Res. 82:416-423). The ECG wires, the silicone elastomer tubing and the micromanometer catheter were tunneled subcutaneously to the back, externalized, and secured in a plastic cap. On the day of the study, each mouse was placed in the mouse holder, the jugular venous catheter was accessed and connected to a microliter syringe (Hamilton Co., Reno, Nev., USA), the 1.4 F micromanometer catheter was connected to a recorder (Dash 4u; Astro-Med, Inc., West Warwick, R.I., USA) and the ECG wires were connected to an ECG amplifier (Gould Inc., Cleveland, Ohio, USA). All experiments were recorded with animals in the conscious state. After at least 6 hours recovery from the implantation of the catheter, when a stable HR was achieved, the baseline ECG and arterial pressure (AP) were recorded for 5 min. Ach(0.05 μg/g) was then administered intravenously (i.v.), and the ECG and AP recording were repeated. A recovery period of 15 min was allowed for the HR and AP to return to baseline before administering the next drug. Baseline HR slowing was examined in response to phenylephrine (0.2 μg/g i.v.).

[2] = tested on: ISO-stimulated AC activity in heart membranes; experiment: AC assay in heart membrane preparations; type: biochemical, mouse; details: carbachol 10 μM
Protocol: Hearts were dissected from the mice and membrane preparations were prepared as described previously (Ishikawa, Y., Sorota, S., Kiuchi, K., Shannon, R. P., Komamura, K., Katsushika, S., Vatner, D. E., Vatner, S. F., and Homcy, C. J. (1994), J. Clin. Invest. 93:2224-2229.). Protein concentration was measured by the method of Bradford using bovine serum albumin as a standard (Bradford, M. M. (1976). Anal. Biochem. 72:248-254.). AC activity was measured as described previously (Kawabe, J., Iwami, G., Ebina, T., Ohno, S., Katada, T., Ueda, Y., Homcy, C. J., and Ishikawa, Y. (1994), J. Biol. Chem. 269:16554-16558). AC activity was linear within the incubation time up to 30 min. In order to harvest hearts for tissue cAMP content measurements, mice were allowed to acclimate to the surroundings in the laboratory for an hour before sacrifice. Freshly isolated hearts were briefly immersed in liquid nitrogen. […] The concentration of cAMP was determined with an RIA kit (PerkinElmer Life Sciences, Boston, Mass., USA).
Inventors then examined cAMP production in membranes from the hearts of AC5KO and WT at 6 months of age (FIG. 5A). The steady state AC activity was determined as the maximal capacity of cAMP production in the presence of ISO (100 μM ISO+100 μM GTP), GTPγS (100 μM) or forskolin (100 μM). […]

AC5KO and WT mice = experiment: Echocardiography in anesthetized mice during i.v. ISO infusion, with co-administered Ach; type: in vivo, mouse
Protocol: Adenylyl cyclase 5 knockout (AC5KO) mice (6.4±0.2 month old, n=6) and wild type (WT) mice (6.7±0.1 month old, n=6) of either sex from the same genetic background as the transgenic mice were used for the physiological studies. Measurements of LV ejection fraction (LVEF) were performed as described previously (Iwase, M., Uechi, M., Vatner, D. E., Asai, K., Shannon, R. P., Kudej, R. K., Wagner, T. E., Wight, D.C., Patrick, T. A., Ishikawa, Y., et al. (1997), Am. J. Physiol. 272:H585-589.). Briefly, after determination of body weight, mice were anesthetized with ketamine (0.065 mg/g), acepromazine (0.002 mg/g), and xylazine (0.013 mg/g) injected intraperitoneally and were allowed to breathe spontaneously. Echocardiography was performed using ultrasonography (Sequoia C256; Acuson Corporation, Mountain View, Calif., USA). A dynamically focused 15-MHz annular array transducer was applied from below, using a warmed saline bag as a standoff. M-mode echocardiographic measurements of the LV were performed at baseline and during intravenous infusion of ISO (0.005, 0.01, 0.02, and 0.04 μg/kg/min i.v. for 5 minutes each)(Abbott Laboratories Inc, North Chicago, Ill., USA) using an infusion pump (PHD 2000; Harvard Apparatus, Inc., Holliston, Mass., USA). The total amount of the infusion volume was <100 μL in each mouse. […]

[3] = tested on: WT, heterozygous and AC5KO mice; experiment: Rotor rod test before and after db-cAMP injection; type: in vivo, mouse; details: for increase in time spent on the rod without falling: 30 minutes after db-cAMP injection; for rotor rod performance: 48 hours after injection
Protocol: The animals were tested for motor function 30 minutes after i. p. administration of 10 mg/kg of db-cAMP. The test was repeated after 48 hours of drug administration when the drug effect was completely eliminated. Similarly, intracranial injection of db-cAMP was conducted. Before drug injection, the mice were anesthetized with ketamine. Injections of db-cAMP into the mouse brain were performed at the following coordinates: for injection into the striatum: 1.70 mm anterior to the bregma, 1.1 mm to the right of the midline, and 4.1 mm deep. Three micro-liters of drug solution was loaded into an internal cannula needle (C315×33) with cannula tubing connected to a Hamilton syringe mounted onto a microinjection pump (Harvard Apparatus, Dover, Mass.). The drug solutions were delivered at a rate of 0.5 μl/min. Normal saline was injected in a sham control.
The rotor rod test is the most commonly used method to evaluate the motor function in rodents^106 but other methods are also available^107 to reinforce the findings of the rotor rod test. Such tests include rearing test, spontaneous movement study and pole test. The first test examines the frequency of vertical movements of mice and the second examines that of horizontal movements. Thus, spontaneous activity was determined both horizontally (locomotion) and vertically (rearings). The last test, the pole test, examines the degree of bradykinesia. In this test, mice were placed head upward on the top of a rough-surfaced pole. The time until they turned downward (Tturn) and the time until they climbed down to the floor were measured (TLA). Mice were placed in a cage and their movements were videotaped for analysis. Thus, spontaneous movements as an index of motor function were evaluated. Most important, these tests were used to evaluate the recovery of motor function upon cAMP administration and/or adenovirus-mediated gene transfer of AC5 in additional studies. The preliminary data were obtained from littermates of AC5KO, and WT males.
The inventors examined whether the locomotor activity of the AC5KO mouse was impaired compared to a normal mouse. At a glance, the AC5KO mice appeared normal, i.e., they were not catatonic or rigid. […] Inventors analyzed them with a rotor rod test in which mice were put on a rotor rod as shown below. In this task, animals had to make continuous adjustment in balance and posture to remain upright on a rod. The time that mice spent on the accelerating rotor-rod without falling was measured. The rod increased from 3 rpm to 30 rpm during each 5-min trial. […] At the 5th trial, there was a small, but significant decrease in their performance in heterozygous mice.

[4] = tested on: primary cultured striatal neurons; experiment: cAMP accumulation in primary cultured striatal neurons; type: cell-based, mouse; details: neuronal cells from WT mice; forskolin 50 micro M, dopamine 100 micro M (FIG. 9)
Protocol: Reaction with various agonists in the presence of a phosphodiesterase inhibitor proceed for 10 minutes and are stopped by the addition of ice-cold 2.5% perchloric acid, followed by sonication and centrifugation. Pellets are dissolved in 0.1 N NaOH for protein measurements and the supernatants are subject to cAMP assay by radioimmunoassay after neutralization. To examine whether AC5 plays a major role in regulating cAMP production, receptor-stimulated cAMP production and its effect in the striatum was measured. The rationale for this study is as follows. Changes in cAMP signal upon receptor stimulation can be easily determined by measuring AC activity in intact neuronal cells because the striatal membrane preparations present a few problems. Determination of basal, GTPγS— and forskolin-stimulated AC activity may be readily done while receptor-regulated AC activity, both stimulatory and inhibitory, is not easy in the striatum. This is, at least partially, due to less abundant receptor expression and the disruption of the receptor/G protein/AC coupling during the process of membrane homogenization of the striatum. Therefore, the effect of receptor stimulation and its sequential changes in AC activity and further downstream events including the process of phosphorylation/dephosphorylation may be best examined using cultured cells or even the whole body. […]

CC(=O)OCC[N+](C)(C)C [Ach, acetylcholine]
decrease in HR ([1]; conscious AC5KO): 7.5%
decrease in HR ([1]; conscious WT): 22%

C[N+](C)(C)CCOC(N)=O [Carbachol]
inhibition of ISO-stimulated AC activity ([2]; AC5KO heart membranes): did not inhibit
decrease of ISO-stimulated AC activity ([2]; WT heart membranes): 21±3.4%

CC(C)NCC(O)c1ccc(O)c(O)c1 (stereo not shown) [ISO]
cardiac responses on LVEF and fractional shortening (FS) (AC5KO and WT mice): attenuated

CNC[C@H](O)c1cccc(O)c1 [Phenylephrine, phenylephrine]
baroreflex mediated slowing of HR ([1]; AC5KO compared with WT, phenylephrine 0.2 μg/g i.v.): less
systolic arterial pressure ([1]; both WT and AC5KO, phenylephrine 0.2 μg/g i.v.): increased systolic arterial pressure significantly

CN1[C@@H]2CC[C@H]1C[C@@H](OC(=O)C(CO)c1ccccc1)C2 (stereo partly shown) [atropine]
increase in HR ([1]; AC5KO): 19±7.5 beats/min
increase in HR ([1]; WT): 102±22.2 beats/min

CCCC(=O)Nc1ncnc2c1ncn2[C@@H]1O[C@@H]2COP(=O)(O)O[C@H]2[C@H]1OC(=O)CCC [db-cAMP]
increase in time spent on the rod without falling ([3]; AC5KO): approximately two-fold
rotor rod performance ([3]; AC5KO): dropped to the basal level
increase in time spent on the rod without falling ([3]; WT): 30%
rotor rod performance ([3]; WT): remained similar
increase in time spent on the rod without falling ([3]; heterozygous): 25%
rotor rod performance ([3]; heterozygous): remained similar

NCCc1ccc(O)c(O)c1 [dopamine]
levels of cAMP compared to untreated cells [4]: effective at increasing the levels of cAMP significantly
